Reference: paper PMC5835976, “Synthesis, gallium labelling and characterization of P04087, a functionalized phosphatidylserine-binding peptide” (EJNMMI Radiopharmacy and Chemistry, 2017)
Where no end group is shown, it is not given here.

How the values were obtained:
[1] = compared with Ga-P04087; no reference given for the value; cited from earlier work
vegetations = vegetations of experimental endocarditis; ref Rouzet et al. [2008]; cited from earlier work
Source text: Otherwise, the presence of ^67Ga-P04087 uptake on autoradiography in contrast to the rapid degradation observed in vitro without the metalloprotease inhibitor, point out the discrepancies that could occur between in vitro and in vivo degradation even when low tracer amounts are used in vitro in order to avoid saturation of enzymes (García-Garayoa et al. [2001]). These positive autoradiography results extend the findings of histology experimentations on the binding of the agent to PS. However, comparatively to radiolabelled Annexin A5, the contrast was not sufficient to provide a detectable sig ...

[2] = Peptide stability in Hank's medium with 10% foetal calf serum; assay type: in vitro ADME; conditions: 37 °C; for Stability result: Hanks + 10% FCS, 2 h incubation, in darkness, triplicate, sampled at 0, 1 h, 2 h, TCA precipitation, LC/ES/MS; for Stability in Hanks media supplied or not with foetal calf serum: Hanks media with or without FCS, two hours
Experimental: A 100 μL solutions of R824 (PGDLSR), R825 (DAHSFS) and R826 (LIKKPF) in Hank’s medium and 10% FCS (foetal calf serum) were prepared and incubated (in triplicate) for 2 h at 37 °C and in complete darkness. At 0, 1 h and 2 h, 100 μL were sampled from each tube; 200 μL of 0.6 M trichloroacetic acid were added. The mixtures were then centrifuged at 20,000 g for 10 min at 4 °C. One microliter of each supernatant was then analyzed by LC/ES/MS.

[3] = assay type: in vitro ADME, human
Experimental: The metabolic stability was checked in human serum at 37 °C in presence and in absence of 1,10 phenanthroline monohydrate, a well-known metalloprotease inhibitor (Wijayanti et al. [2006]) at appropriate periods of time (0, 15, 30, 60 min). In two different tubes containing 200 μL of human serum plasma previously incubated at 37 °C was added 40 μL of ^67Ga-P04087 labelling solution. 4 μL of 1 mg/mL of 1,10 phenanthroline monohydrate in ethanol was added only in one of the two tubes. At 0, 15, 30 and 60 min, 20 μL aliquots were collected and proteins were precipitated with 200 μL of methanol. Samples were then filtered with 0.2 μm Whatman filter (13 mm) and the methanol was then evaporated with a stream of nitrogen. The resulting dry residue was dissolved in 200 μL water and then analyzed by C18-radio-HPLC using the equipment mentioned above.

[4] = test system: phosphatidylserine in valve vegetations; test: In vivo binding to PS in rat model of infective endocarditis (SPECT/CT, autoradiography); conditions: intravenous injection, intense signal in the bladder

| Compound | Stability result [2] | Stability in Hanks media supplied or not with foetal calf serum [2] | further results |
| --- | --- | --- | --- |
| 99mTc-AnnexinV: technetium 99m-labelled Annexin V, protein imaging agent targeting PS | – | – | affinity to PS [1]: 6*10^−9 M; uptake ratio for autoradiography (vegetations): 2; uptake ratio for in vivo acquisitions (vegetations): 1.3 |
| CC(C)C[C@H](NC(=O)[C@H](CC(=O)O)NC(=O)CNC(=O)[C@@H]1CCCN1C(=O)CCNC(=O)CCC(C(=O)O)N1CCN(CC(=O)O)CCN(CC(=O)O)CC1)C(=O)N[C@@H](CO)C(=O)N[C@@H](CCCNC(=N)N)C(=O)O (some centres unmarked) [Peptide 67Ga-P04087, metal not drawn] | – | – | Radiochemical purity in human serum with 1,10 phenanthroline monohydrate [3]: 100%; Renal elimination on SPECT/CT [4]: rapid renal elimination |
| LIKKPF [Peptide R826] | Total degradation 1 h after the start of incubation | quickly degraded | – |

Now from value to compound, other results behind:

| Stability result [2] | Stability in Hanks media supplied or not with foetal calf serum [2] | Compound | further results |
| --- | --- | --- | --- |
| Stable | stable | DAHSFS [Peptide R825] | – |
| Stable | stable | PGDLSR [Peptide R824] | – |
